# In ChEMBL document CHEMBL5661943, “ASAP - In vitro antiviral effect” (2024):
# Values joined by “and” are separate entries in the source; they are usually repeats but may differ in a detail not shown here. Equal values may be shown once.
# How the values were obtained:
# Zika virus [1] = experiment: EC50 is reported via analysis of immunofluorescence staining. The assay has been performed by Icahn School of Medicine at Mount Sinai.; format: functional, organism-based, Chlorocebus sabaeus, VeroE6/TMPRSS2; conditions: Baseline response 0 %, Maximum response 100 %, P-gp concentration 2 uM, P-gp inhibitor Elacidar
# dengue virus type 2 [2] = experiment: Functional immunofluorescence assay to measure dose dependent changes in antiviral-drug inhibitory efficacy against Dengue virus type 2 Thailand/16681/84 in Vero E6/TMPRSS2 cells (cotreated with P-gp inhibitor, Elacridar). Cells are treated with antiviral candidates that are serially diluted, following infection, cells are fixed. EC50 is reported via analysis of immunofluorescence staining. The assay has been performed by Icahn School of Medicine at Mount Sinai.; format: organism-based, Chlorocebus sabaeus, VeroE6/TMPRSS2; conditions: for EC90: P-gp concentration 2 uM, P-gp inhibitor Elacidar
# Zika virus [3] = experiment: Functional CPE-based assay to measure dose dependent changes in antiviral-drug inhibitory efficacy against Zika virus MR766 in Vero E6 miRFP670 cells. Cells are treated with antiviral candidates that are serially diluted. EC50 is reported via analysis of MTS assay as a readout of CPE. The assay has been performed by KU Leuven.; format: organism-based, Chlorocebus sabaeus, Vero C1008; conditions: Zika virus
# Zika virus [4] = experiment: Functional immunofluorescence assay to measure dose dependent changes in antiviral-drug inhibitory efficacy against Zika virus PRVABC59 in Vero E6/TMPRSS2 cells. Cells are treated with antiviral candidates that are serially diluted, following infection, cells are fixed. EC50 is reported via analysis of immunofluorescence staining. The assay has been performed by Icahn School of Medicine at Mount Sinai.; format: organism-based, Chlorocebus sabaeus; conditions: VeroE6/TMPRSS2
# dengue virus type 2 [5] = experiment: Functional immunofluorescence assay to measure dose dependent changes in antiviral-drug inhibitory efficacy against Dengue virus type 2 Thailand/16681/84 in Vero E6/TMPRSS2 cells. Cells are treated with antiviral candidates that are serially diluted, following infection, cells are fixed. EC50 is reported via analysis of immunofluorescence staining. The assay has been performed by Icahn School of Medicine at Mount Sinai.; format: organism-based, Chlorocebus sabaeus
# Zika virus [6] = experiment: Functional CPE-based assay to measure dose dependent changes in antiviral-drug inhibitory efficacy against Zika virus MR766 in Vero E6 miRFP670 cells (cotreated with P-gp inhibitor, CP100356). Cells are treated with antiviral candidates that are serially diluted. EC50 is reported via analysis of MTS assay as a readout of CPE. The assay has been performed by KU Leuven.; format: organism-based, Chlorocebus sabaeus, Vero C1008; conditions: Zika virus, Vero C1008
# dengue virus type 2 [7] = experiment: Functional assay to measure dose dependent changes in antiviral-drug inhibitory efficacy against Dengue virus type 2 New Guinea C in Vero E6 miRFP670 cells (cotreated with P-gp inhibitor, CP100356). Cells are treated with antiviral candidates that are serially diluted, following infection, cells are fixed. EC50 is reported via analysis of fluorescence intensity using high-content imager. The …; format: organism-based, Chlorocebus sabaeus, Vero C1008; conditions: for EC90: P-gp concentration 500 nM, P-gp inhibitor CP100356
# dengue virus type 2 [8] = experiment: Functional CPE-based assay to measure dose dependent changes in antiviral-drug inhibitory efficacy against Dengue virus type 2 New Guinea C in Huh7 cells. Cells are treated with antiviral candidates that are serially diluted. EC50 is reported via analysis of MTT/MTS assay as a readout of CPE. The assay has been performed by National Institute of Allergy and Infectious Diseases.; format: organism-based, Homo sapiens; conditions: Huh-7
compound,measurement,setting,value
COc1cc(N[C@@H](C(=O)c2c[nH]c3ccc(OC(F)(F)F)cc23)c2ccc(Cl)cc2OC)cc(S(C)(=O)=O)c1,EC90,"Zika virus [1]; EC90 CI (lower) 0.002 uM, EC90 CI (upper) 0.172 uM, Hill slope -0.792, Maximum measured 161.955 %, Minimum measured 5.205 %, R squared 0.677",4.83 µM
same,EC90,"Zika virus [1]; EC90 CI (lower) 0.029 uM, EC90 CI (upper) 0.11 uM, Hill slope -0.824, Maximum measured 111.518 %, Minimum measured 7.6 %, R squared 0.806",> 10 µM
same,EC90,"Zika virus [1]; EC90 CI (lower) 0.389 uM, EC90 CI (upper) 1.092 uM, Hill slope -2.761, Maximum measured 123.481 %, Minimum measured 14.219 %, R squared 0.888",3.2 µM
same,EC90,"Zika virus [1]; Hill slope -12.116, Maximum measured 127.26 %, Minimum measured 45.283 %, R squared 0.53",> 3.33 µM
same,EC90,"Zika virus [1]; Hill slope -12.74, Maximum measured 124.12 %, Minimum measured 2.277 %, R squared 0.501",3.79 µM
same,EC90,"Zika virus [1]; Hill slope -15.757, Maximum measured 117.305 %, Minimum measured 4.138 %, R squared 0.906",1.1 µM
same,EC90,"Zika virus [1]; Hill slope -17.776, Maximum measured 116.903 %, Minimum measured 2.275 %, R squared 0.837",3.17 µM
same,EC90,"Zika virus [1]; Hill slope -18.67, Maximum measured 119.05 %, Minimum measured 1.241 %, R squared 0.846",3.28 µM
same,EC90,"dengue virus type 2 [2]; Baseline response 0 %, EC90 CI (lower) 0.626 uM, EC90 CI (upper) 1511.53 uM, Hill slope 3.662, Maximum measured 12.805 %, Maximum response 100 %, Minimum measured 0.049 %, R squared 0.652",9.27 µM
same,EC90,"dengue virus type 2 [2]; Baseline response 0 %, EC90 CI (lower) […] uM, EC90 CI (upper) […] uM, Hill slope -1.863, Maximum measured 115.571 %, Maximum response 100 %, Minimum measured 6.648 %, R squared 0.785",0.061 µM
same,EC90,"dengue virus type 2 [2]; Baseline response 0 %, Hill slope 1.613, Maximum measured 7.031 %, Maximum response 100 %, Minimum measured 0.609 %, R squared 0.305",< 0.005 µM
same,EC90,"dengue virus type 2 [2]; Baseline response 0 %, Hill slope 2.619, Maximum measured 1.603 %, Maximum response 100 %, Minimum measured 0.015 %, R squared 0.655",< 0.005 µM
same,EC90,"dengue virus type 2 [2]; Baseline response 0 %, Hill slope 2.624, Maximum measured 9.128 %, Maximum response 100 %, Minimum measured 0.482 %, R squared 0.941",< 0.005 µM
same,EC90,"dengue virus type 2 [2]; Baseline response 0 %, Hill slope -0.067, Maximum measured 1.374 %, Maximum response 100 %, Minimum measured 0.665 %, R squared 0.06",< 0.005 µM
same,EC90,"dengue virus type 2 [2]; Baseline response 0 %, Hill slope -0.101, Maximum measured 7.568 %, Maximum response 100 %, Minimum measured 3.136 %, R squared 0.228",< 0.005 µM
same,EC90,"dengue virus type 2 [2]; Dengue virus, VeroE6/TMPRSS2, Maximum measured 1.671 %, Minimum measured 0.643 %",< 0.005 µM
same,EC50,dengue virus type 2 [2]; veroe6/tmprss2,< 5 nM and 19 nM
same,EC90,"Zika virus [3]; Vero C1008, Baseline response 0 %, Hill slope 9.978, Maximum measured 3.488 %, Maximum response 100 %, Minimum measured -3.611 %, R squared 0.038",> 50000 nM
same,EC90,"Zika virus [3]; Vero C1008, Baseline response 0 %, Hill slope 52.791, Maximum measured 104.354 %, Maximum response 100 %, Minimum measured 0.394 %, R squared 0.996",452 nM
same,EC90,"Zika virus [3]; Vero C1008, Baseline response 0 %, Hill slope -0.752, Maximum measured 14.519 %, Maximum response 100 %, Minimum measured -4.788 %, R squared 0.067",< 391 nM
same,EC90,"Zika virus [3]; Vero C1008, Baseline response 0 %, Hill slope -0.757, Maximum measured 74.834 %, Maximum response 100 %, Minimum measured -5.889 %, R squared 0.129",< 391 nM
same,EC90,"Zika virus [3]; Vero C1008, Baseline response 0 %, Hill slope -0.835, Maximum measured 99.922 %, Maximum response 100 %, Minimum measured -10.847 %, R squared 0.106",< 391 nM
same,EC90,"Zika virus [3]; Vero C1008, Maximum measured 8.337 %, Minimum measured -6.427 %",> 50000 nM
same,EC90,"Zika virus [3]; Vero C1008, Baseline response 0 %, EC90 CI (lower) 10.077 uM, EC90 CI (upper) 13.839 uM, Hill slope 6.588, Maximum measured 92.835 %, Maximum response 100 %, Minimum measured -3.07 %, R squared 0.987",11800 nM
same,EC50,Zika virus [4],546 nM
same,EC90,Zika virus [4],2790 nM
same,EC50,dengue virus type 2 [5]; VeroE6/TMPRSS2,< 5 nM
same,EC90,"dengue virus type 2 [5]; VeroE6/TMPRSS2, Baseline response 0 %, Hill slope -0.076, Maximum measured 4.343 %, Maximum response 100 %, Minimum measured 1.659 %, R squared 0.062",< 5 nM
same,EC50,Zika virus [6],726 nM
same,EC90,"Zika virus [6]; Baseline response 0 %, Hill slope 17.55, Maximum measured 78.36 %, Maximum response 100 %, Minimum measured -4.751 %, P-gp concentration 500 nM, R squared 0.965, P-gp inhibitor CP100356",> 781 nM
same,EC90,"dengue virus type 2 [7]; Baseline response 0 %, Hill slope 0.131, Maximum measured 1.754 %, Maximum response 100 %, Minimum measured 0.009 %, R squared 0.032",< 391 nM
same,EC90,"dengue virus type 2 [7]; Baseline response 0 %, Hill slope 0.182, Maximum measured 0.608 %, Maximum response 100 %, Minimum measured 0.03 %, R squared 0.035",< 391 nM
same,EC90,"dengue virus type 2 [7]; Baseline response 0 %, Hill slope 0.299, Maximum measured 0.369 %, Maximum response 100 %, Minimum measured 0.02 %, R squared 0.601",< 391 nM
same,EC90,"dengue virus type 2 [7]; Baseline response 0 %, Hill slope 0.306, Maximum measured 1.238 %, Maximum response 100 %, Minimum measured 0.01 %, R squared 0.111",< 391 nM
same,EC90,"dengue virus type 2 [7]; Baseline response 0 %, Hill slope 1.135, Maximum measured 0.49 %, Maximum response 100 %, Minimum measured 0.132 %, R squared 0.538",< 391 nM
same,EC50,"dengue virus type 2 [7]; Dengue virus, Vero C1008",< 391 nM
same,EC90,"dengue virus type 2 [7]; Dengue virus, Vero C1008, Maximum measured 0.33 %, Minimum measured 0.072 %",< 391 nM
same,EC90,"dengue virus type 2 [7]; Dengue virus, Vero C1008, Baseline response 0 %, Hill slope 0.447, Maximum measured 0.846 %, Maximum response 100 %, Minimum measured 0.033 %, R squared 0.302",< 391 nM
same,EC50,dengue virus type 2 [8],< 10 nM
